# Measurements from patent publication US8975398B2, “NAMPT inhibitors” (AbbVie Inc., priority 2012, dated 2015).
# Tests used:
# [1] = target: NAMPT (human, recombinant, C-terminally His-tagged) (Homo sapiens, UniProt P43490); assay: Time-Resolved Fluorescence Resonance Energy Transfer (TR-FRET) Binding Assay of NAMPT; conditions: 6.8 nM NAMPT, 200 nM probe, equilibrated 3 hours, absence of substrates
# How it was run: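 Recombinant C-terminally His-tagged human NAMPT (6.8 nM) incubated 3 h at room temperature with 200 nM Oregon Green 488–labelled nicotinamide-competitive probe and 1 nM Tb-anti-His antibody in HEPES pH 7.5, 2% DMSO. TR-FRET ratio Em520/Em495 normalized to controls; IC50 from four-parameter logistic fit.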
# NAMPT = NAMPT (Homo sapiens, UniProt P43490); assay: Time-Resolved Fluorescence Resonance Energy Transfer (TR-FRET) Binding Assay of NAMPT with PRPP; conditions: 2 nM NAMPT, 2 nM probe, 200 uM PRPP and 2.5 mM ATP, equilibrated 16 hours
# Chain of NAMPT (P43490 whole entry): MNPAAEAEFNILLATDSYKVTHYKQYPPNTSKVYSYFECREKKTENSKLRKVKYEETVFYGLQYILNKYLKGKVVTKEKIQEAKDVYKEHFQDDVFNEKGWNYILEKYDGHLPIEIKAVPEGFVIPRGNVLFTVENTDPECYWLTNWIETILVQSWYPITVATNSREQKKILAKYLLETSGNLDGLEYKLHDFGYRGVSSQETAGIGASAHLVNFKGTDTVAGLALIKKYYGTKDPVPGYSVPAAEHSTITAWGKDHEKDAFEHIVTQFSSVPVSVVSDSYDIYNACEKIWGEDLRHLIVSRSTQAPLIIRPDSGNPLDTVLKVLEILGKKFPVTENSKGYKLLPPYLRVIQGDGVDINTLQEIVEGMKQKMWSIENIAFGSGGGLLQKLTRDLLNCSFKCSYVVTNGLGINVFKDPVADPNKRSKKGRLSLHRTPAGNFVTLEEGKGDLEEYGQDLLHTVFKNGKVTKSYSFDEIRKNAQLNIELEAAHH
# How it was run: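 Final mix: 2 nM NAMPT, 2 nM probe, 1 nM Tb-anti-His antibody, 200 uM PRPP, 2.5 mM ATP, 2% DMSO in 1× assay buffer. Equilibrated 16 hours before TR-FRET read, allowing possible enzymatic modification of compounds.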
# Chain of NAMPT (human, recombinant, C-terminally His-tagged) (P43490 whole entry): as above
smiles,measurement,setting,value
"CC1CC1C(=O)N1CCC(c2ccc(NC(=O)C3CN(c4cccnc4)C3)cc2)CC1 (centres unmarked) [Example 102, N-(4-{1-[(2-methylcyclopropyl)carbonyl]piperidin-4-yl}phenyl)-1-(pyridin-3-yl)azetidine-3-carboxamide]",IC50,[1],8.84 nM
same,IC50,NAMPT,0.21 nM
"O=C(Nc1ccc(C2CCN(C(=O)C3(c4ccccc4)CC3)CC2)cc1)C1CN(c2cccnn2)C1 [Example 381, N-(4-{1-[(1-phenylcyclopropyl)carbonyl]piperidin-4-yl}phenyl)-1-(pyridazin-3-yl)azetidine-3-carboxamide]",IC50,[1],15.1 nM
same,IC50,NAMPT,1.13 nM
"O=C(Nc1ccc(OC2CN(C(=O)Cc3ccc(F)cc3)C2)cc1)C1CN(c2ccnnc2)C1 [Example 203, N-[4-({1-[(4-fluorophenyl)acetyl]azetidin-3-yl}oxy)phenyl]-1-(pyridazin-4-yl)azetidine-3-carboxamide]",IC50,[1],34.2 nM
same,IC50,NAMPT,21.1 nM
"O=C(Nc1ccc(OC2CCN(C(=O)C3CCOC3)CC2)cc1)C1CN(c2cccnn2)C1 (centres unmarked) [Example 226, 1-(pyridazin-3-yl)-N-(4-{[1-(tetrahydrofuran-3-ylcarbonyl)piperidin-4-yl]oxy}phenyl)azetidine-3-carboxamide]",IC50,[1],242 nM
same,IC50,NAMPT,0.896 nM
"CC(C)CN1CCC(c2ccc(NC(=O)C3CN(c4cccnc4)C3)cc2)CC1 [Example 94, N-{4-[1-(2-methylpropyl)piperidin-4-yl]phenyl}-1-(pyridin-3-yl)azetidine-3-carboxamide]",IC50,[1],2270 nM
same,IC50,NAMPT,1.03 nM
"O=C(Nc1ccc(OC2CCN(C(=O)c3ccc(C(F)(F)F)cc3)CC2)cc1)C1CN(c2cccnn2)C1 [Example 237, 1-(pyridazin-3-yl)-N-[4-({1-[4-(trifluoromethyl)benzoyl]piperidin-4-yl}oxy)phenyl]azetidine-3-carboxamide]",IC50,[1],240 nM
same,IC50,NAMPT,1.27 nM
"Cc1ncccc1N1CC(C(=O)Nc2ccc(C3CCN(C(=O)CCC(C)C)CC3)cc2)C1 [Example 176, N-{4-[1-(4-methylpentanoyl)piperidin-4-yl]phenyl}-1-(2-methylpyridin-3-yl)azetidine-3-carboxamide]",IC50,[1],165 nM
same,IC50,NAMPT,111 nM
"O=C(Nc1ccc(C2CCN(C(=O)CC(F)(F)F)CC2)cc1)C1CN(c2cccnc2)C1 [Example 122, 1-(pyridin-3-yl)-N-{4-[1-(3,3,3-trifluoropropanoyl)piperidin-4-yl]phenyl}azetidine-3-carboxamide]",IC50,[1],7.94 nM
same,IC50,NAMPT,0.169 nM
"O=C(Nc1ccc(C2CCN(CC3CCCC3)CC2)cc1)C1CN(c2cccnc2)C1 [Example 88, N-{4-[1-(cyclopentylmethyl)piperidin-4-yl]phenyl}-1-(pyridin-3-yl)azetidine-3-carboxamide]",IC50,[1],574 nM
same,IC50,NAMPT,0.64 nM
"COCC(=O)N1CCC(Oc2ccc(NC(=O)C3CN(c4ccnnc4)C3)cc2)CC1 [Example 267, N-(4-{[1-(methoxyacetyl)piperidin-4-yl]oxy}phenyl)-1-(pyridazin-4-yl)azetidine-3-carboxamide]",IC50,[1],274 nM
same,IC50,NAMPT,56.5 nM
"O=C(Nc1ccc(OC2CCN(CC3CCOC3)CC2)cc1)C1CN(c2cccnc2)C1 (centres unmarked) [Example 83, 1-(pyridin-3-yl)-N-(4-{[1-(tetrahydrofuran-3-ylmethyl)piperidin-4-yl]oxy}phenyl)azetidine-3-carboxamide]",IC50,[1],1210 nM
same,IC50,NAMPT,0.503 nM
"O=C(Nc1ccc(OC2CCN(C(=O)c3ccc(F)cc3)CC2)cc1)C1CN(c2ccnnc2)C1 [Example 271, N-(4-{[1-(4-fluorobenzoyl)piperidin-4-yl]oxy}phenyl)-1-(pyridazin-4-yl)azetidine-3-carboxamide]",IC50,[1],78 nM
same,IC50,NAMPT,25.2 nM
"Cc1ncccc1N1CC(C(=O)Nc2ccc(C3CCN(C(=O)C4CC4C)CC3)cc2)C1 (centres unmarked) [Example 163, N-(4-{1-[(2-methylcyclopropyl)carbonyl]piperidin-4-yl}phenyl)-1-(2-methylpyridin-3-yl)azetidine-3-carboxamide]",IC50,[1],166 nM
same,IC50,NAMPT,83.1 nM
